Assay results from US10573426B2, “Fluorinated nitriles as dielectric gases” (3M INNOVATIVE PROPERTIES COMPANY, priority 2012, dated 2020).

Experiments:
rats = assay: 4 hour inhalation LC50 in rats; assay type: in vivo
Experimental: (§1) For example, heptafluoroisobutyronitrile and 2,3,3,3-tetrafluoro-2-(trifluoromethoxy) propanenitrile have 4 hour inhalation lethal concentration at 50% (“LC-50”, defined as the dose required to produce lethality in half the members of a tested population after a specified test duration) (in rats) values of about 15,000 ppm. […] The nitriles of the present disclosure achieve these lower toxicities without the addition of additives such as nitrite esters as in U.S. Pat. No. 4,547,316.

6 hour inhalation LC50 = assay type: in vivo; details: species not given
Experimental: as §1

SMILES	4 hour inhalation lethal concentration at 50% (LC-50) (rats)	6 hour inhalation LC50 (6 hour inhalation LC50) [ppm]
N#CC(F)(OC(F)(F)F)C(F)(F)F (centres unmarked) [2,3,3,3-tetrafluoro-2-(trifluoromethoxy)propanenitrile]	about 15,000 ppm	
N#CC(F)(F)C(F)(F)C(F)(F)F [CF3CF2CF2CN]	less than 6,000 ppm	
N#CC(F)(F)C(F)(F)F [CF3CF2CN]	2731 ppm	
N#CC(F)(F)F [CF3CN]		240
N#CC(F)(C(F)(F)F)C(F)(F)F [heptafluoroisobutyronitrile, Heptafluoroisobutyronitrile]	about 15,000 ppm	
